From ChEMBL document CHEMBL1201862, “PubChem BioAssay data set” (2004) come the findings set out here.

Molecules are shown by their SMILES.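 Assay format: 96-well plates, 48-hour exposure. GI50 is the concentration that inhibits growth by half.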 Activity calls are given as the source filed them. Cut-off read from the data, not from the text of the source: active = GI50 up to about 1.1 µM and inactive = higher.

Some test systems named below: ACHN; HCT-15; HOP-92; K562; KM12; LOX IMVI; MCF7; OVCAR-3; OVCAR-4; OVCAR-5; PC-3; RXF 393; SK-MEL-2; SK-MEL-5; SK-OV-3; SW-620; TK-10; UO-31; NCI-H522; HL-60.
Common to all, as to test: NCI anticancer screen, dose series, 48 h

Take `Cc1cccc(-c2cc(=S)c3cc(N4CCCC4)ccc3[nH]2)c1`: the GI50 in the experiment with ACHN is > 100 µM (inactive); in the experiment with HCT-15, above 100 µM; with HOP-92, > 100 µM (inactive); in the experiment on K562 it was > 100 µM (inactive); in the experiment with KM12, > 100 µM (inactive); in the experiment on LOX IMVI, > 100 µM (inactive). In addition, the GI50 with MCF7, with OVCAR-3, in the experiment with OVCAR-4, in the experiment on OVCAR-5, with PC-3 and with RXF 393 was > 100 µM (inactive) each time. Also, the GI50 in the experiment on SK-MEL-2, with SK-MEL-5, in the experiment on SK-OV-3, in the experiment with SW-620, in the experiment with TK-10 and in the experiment on UO-31 was > 100 µM (inactive) each time.

With `Cc1ccc(S(=O)(=O)N(CCN)c2cc3c4c(c2)Oc2cccc5c2C4c2c(cccc2O3)O5)cc1`, the GI50 in the experiment with ACHN is 44.7 µM (inactive); in the experiment on HCT-15, 81.1 µM; in the experiment with HOP-92, 0.9 µM (active); in the experiment with K562 it was 30 µM (inactive); in the experiment with KM12, > 100 µM (inactive); with LOX IMVI, 23.2 µM (inactive). The GI50 in the experiment with MCF7 is 20.7 µM (inactive); in the experiment with OVCAR-3 it was 20 µM (inactive); in the experiment with OVCAR-4, > 10 µM (inactive); with OVCAR-5, 21.2 µM (inactive); in the experiment on PC-3, 18.7 µM (inactive); in the experiment with SK-MEL-2, 22.8 µM (inactive). For the same molecule, the GI50 was 19.9 µM (inactive) with SK-MEL-5; 27 µM (inactive) in the experiment with SK-OV-3; 36.5 µM (inactive) with SW-620; 48.9 µM (inactive) with TK-10; > 100 µM (inactive) in the experiment on UO-31.

Consider `COc1ccc2c(c1)C(=O)CC1c3cnccc3C(=O)N21` (stereo unspecified), for which the GI50 with ACHN is > 100 µM (inactive); in the experiment with HCT-15, above 100 µM; in the experiment with HOP-92, > 100 µM (inactive); with K562 it was > 94.8 µM (inactive); in the experiment on KM12, > 100 µM (inactive); in the experiment with LOX IMVI, > 100 µM (inactive). Besides, the GI50 in the experiment on MCF7, in the experiment on NCI-H522, with OVCAR-3, in the experiment with OVCAR-4, in the experiment with OVCAR-5 and with PC-3 was > 100 µM (inactive) in each case. Further, the GI50 was > 75.9 µM (inactive) with RXF 393; > 100 µM (inactive) with SK-MEL-2; > 100 µM (inactive) with SK-MEL-5; > 100 µM (inactive) with SK-OV-3; > 100 µM (inactive) in the experiment with SW-620; > 100 µM (inactive) in the experiment with TK-10. For the same molecule, the GI50 with UO-31 is 49.1 µM (inactive).

Regarding `Cn1c2ccccc2n2c(=O)c(-c3ccc(O)cc3)nnc12`, the GI50 in the experiment on ACHN is 70 µM (inactive); in the experiment on HCT-15, above 100 µM; in the experiment with HL-60, > 100 µM (inactive); in the experiment on HOP-92 it was > 100 µM (inactive); in the experiment with KM12 it was > 100 µM (inactive); with LOX IMVI, 69.8 µM (inactive). The GI50 in the experiment on MCF7 is > 100 µM (inactive); in the experiment with NCI-H522, 96.8 µM (inactive); in the experiment with OVCAR-4, > 100 µM (inactive); in the experiment on OVCAR-5, > 100 µM (inactive); in the experiment with PC-3 it was > 100 µM (inactive); in the experiment on SK-MEL-2, > 100 µM (inactive). In addition, the GI50 with SK-MEL-5, in the experiment on SW-620, in the experiment with TK-10 and in the experiment with UO-31 was > 100 µM (inactive) throughout.

Regarding `C=C1CC2CCCC12C=O` (stereo unspecified), the GI50 was > 10 µM (inactive) in the experiment on ACHN; above 10 µM with HCT-15; > 10 µM (inactive) with HL-60; > 10 µM (inactive) with HOP-92; > 10 µM (inactive) in the experiment with K562; > 10 µM (inactive) in the experiment on KM12. In addition, the GI50 in the experiment with LOX IMVI, in the experiment on MCF7, with NCI-H522, in the experiment on OVCAR-3, in the experiment with OVCAR-4 and in the experiment with PC-3 was > 10 µM (inactive) each time. Moreover, the GI50 in the experiment with SK-MEL-5, in the experiment with SK-OV-3, in the experiment with SW-620 and in the experiment with TK-10 was > 10 µM (inactive) in each case.

`O=C1/C(=C/c2cccc([N+](=O)[O-])c2)N=C(c2ccccc2)N1c1nc2ccc(Sc3ccccc3)cc2[nH]1`: the GI50 is > 100 µM (inactive) in the experiment with ACHN; 35.6 µM in the experiment on HCT-15; 71.4 µM (inactive) in the experiment with HOP-92; 30.9 µM (inactive) in the experiment with K562; 31.8 µM (inactive) in the experiment with KM12; 38.5 µM (inactive) in the experiment with LOX IMVI. Also, the GI50 in the experiment with MCF7 is 31.5 µM (inactive); in the experiment with NCI-H522 it was 32.9 µM (inactive); with OVCAR-4, 49.3 µM (inactive); in the experiment on OVCAR-5 it was > 100 µM (inactive); with PC-3, 35.4 µM (inactive); in the experiment on RXF 393, 74.3 µM (inactive). For the same molecule, the GI50 in the experiment with SK-MEL-2 was 30.3 µM (inactive); in the experiment on SK-MEL-5, 28.8 µM (inactive); with SK-OV-3, 34.4 µM (inactive); in the experiment on SW-620, 37.2 µM (inactive); in the experiment on TK-10, 71.4 µM (inactive); in the experiment on UO-31, 3.45 µM (inactive).

In the case of `O=C1c2ccccc2C(=O)c2c(Nc3cc4c5c(ccc6c7ccc8c9c(cc(Nc%10cccc%11c%10C(=O)c%10ccccc%10C%11=O)c(c3c56)c97)-c3ccccc3C8=O)C(=O)c3ccccc3-4)cccc21`, the GI50 in the experiment with ACHN is 36.1 µM (inactive); with HCT-15, above 100 µM; in the experiment on HOP-92, 41.8 µM (inactive); in the experiment with K562 it was 75 µM (inactive); in the experiment on KM12 it was > 100 µM (inactive); in the experiment on LOX IMVI, 72.1 µM (inactive). For the same molecule, the GI50 with MCF7 was 83.2 µM (inactive); in the experiment with NCI-H522, 71 µM (inactive); in the experiment on OVCAR-3, 41.2 µM (inactive); with OVCAR-4 it was 65.8 µM (inactive); in the experiment on OVCAR-5, > 100 µM (inactive); with PC-3, 70.6 µM (inactive). Besides, the GI50 with RXF 393 was 60.3 µM (inactive); in the experiment on SK-MEL-2, 53.6 µM (inactive); with SK-MEL-5, > 100 µM (inactive); in the experiment with SK-OV-3 it was 16.6 µM (inactive); in the experiment with SW-620 it was > 100 µM (inactive); with TK-10, 29.9 µM (inactive). Besides, the GI50 with UO-31 is 84.5 µM (inactive).

For the molecule `Cn1c2ccccc2n2c(=O)c3cc([N+](=O)[O-])ccc3c(C#N)c12`, the GI50 with ACHN is 75.3 µM (inactive); in the experiment on HCT-15, above 100 µM; in the experiment on HL-60 it was > 100 µM (inactive); in the experiment on K562, > 100 µM (inactive); in the experiment on KM12 it was > 100 µM (inactive); in the experiment with LOX IMVI, > 100 µM (inactive). Also, the GI50 in the experiment with MCF7 is > 100 µM (inactive); in the experiment on NCI-H522, > 100 µM (inactive); with OVCAR-3, > 100 µM (inactive); in the experiment with OVCAR-4, 65.6 µM (inactive); in the experiment with OVCAR-5, > 100 µM (inactive); in the experiment on PC-3 it was > 100 µM (inactive). The GI50 in the experiment with RXF 393, in the experiment on SK-MEL-2, in the experiment with SK-MEL-5, in the experiment on SK-OV-3, in the experiment on SW-620 and in the experiment with TK-10 was > 100 µM (inactive) throughout. Also, the GI50 with UO-31 was > 100 µM (inactive).

As for `CCOC(=O)CC[C@H](NC(=O)N[C@H](C)c1ccccc1)C(=O)OCC`, the GI50 in the experiment on ACHN is 53.5 µM (inactive); in the experiment with HCT-15 it was above 100 µM; in the experiment with HL-60, > 100 µM (inactive); with HOP-92 it was 22 µM (inactive); in the experiment on K562, 36.1 µM (inactive); in the experiment on KM12, 73.1 µM (inactive). Besides, the GI50 is 55.7 µM (inactive) in the experiment on LOX IMVI; 32.7 µM (inactive) with MCF7; 18 µM (inactive) in the experiment with OVCAR-3; 52.1 µM (inactive) with OVCAR-4; > 100 µM (inactive) in the experiment on OVCAR-5; 84.7 µM (inactive) with PC-3. Further, the GI50 in the experiment with SK-MEL-2 is 23.4 µM (inactive); with SK-MEL-5, 37 µM (inactive); with SK-OV-3, > 100 µM (inactive); in the experiment with SW-620, > 100 µM (inactive); in the experiment on TK-10, 42.8 µM (inactive); with UO-31, 29.2 µM (inactive).

Consider `Oc1ccc2ccccc2c1Cc1c(O)ccc2ccccc12`, for which the GI50 with ACHN was 17.3 µM (inactive); in the experiment on HCT-15, 14.8 µM; in the experiment with HL-60, 17.8 µM (inactive); with K562, 8.83 µM (inactive); in the experiment on KM12, 18.2 µM (inactive); in the experiment on LOX IMVI, 15.2 µM (inactive). The GI50 in the experiment on MCF7 was 21.8 µM (inactive); in the experiment on NCI-H522, 10.7 µM (inactive); with OVCAR-3, 11.2 µM (inactive); in the experiment with OVCAR-4 it was 13.1 µM (inactive); with OVCAR-5, 15.6 µM (inactive); in the experiment with PC-3 it was 17.5 µM (inactive). The GI50 with RXF 393 was 16 µM (inactive); in the experiment with SK-MEL-2, 18.6 µM (inactive); in the experiment on SK-MEL-5, 16.1 µM (inactive); with SK-OV-3, 17.5 µM (inactive); in the experiment with SW-620, 16 µM (inactive); in the experiment with TK-10, 21 µM (inactive). In addition, the GI50 in the experiment with UO-31 is 15 µM (inactive).

Consider `NCCN/C(=N\c1ccccc1)Nc1ccccc1`, for which the GI50 in the experiment on HCT-15 was above 100 µM; with HL-60, > 100 µM (inactive); with K562, > 100 µM (inactive); in the experiment with KM12 it was > 100 µM (inactive); in the experiment on LOX IMVI it was 83.8 µM (inactive); with MCF7, > 100 µM (inactive). Also, the GI50 in the experiment on NCI-H522 was 68.4 µM (inactive); in the experiment with OVCAR-3, > 100 µM (inactive); in the experiment on OVCAR-4, > 100 µM (inactive); in the experiment on PC-3 it was 55.6 µM (inactive); with RXF 393, 24.3 µM (inactive); in the experiment with SK-MEL-2, > 100 µM (inactive). Also, the GI50 in the experiment with SK-MEL-5 is 99.5 µM (inactive); in the experiment with SK-OV-3 it was > 100 µM (inactive); with SW-620 it was > 100 µM (inactive); in the experiment on TK-10, > 100 µM (inactive); in the experiment with UO-31, > 100 µM (inactive).
